Experimental data from the NIST ThermoML archive (doi:10.1016/j.jct.2016.09.036).
± gives the expanded uncertainty stated by the source.

Tests used:
[1] = for mass density: 298.15 K, 101.33 kPa
[2] = Molar enthalpy of transition or fusion; settings: Crystal 1; DSC

mass density ([1]; Crystal 1, Pycnometric method): 1517.1 ± 2.1 kg/m3
mass density ([1]; Crystal 1, X-ray diffraction): 1516.7 ± 7.4 kg/m3
mass density ([1]; Metastable crystal, Pycnometric method): 1355.3 ± 2.1 kg/m3
mass density ([1]; Metastable crystal, X-ray diffraction): 1362.9 ± 25 kg/m3
Triple point temperature ([1]; Crystal 1, DSC): 501.41 ± 7.8 K
Molar enthalpy of transition or fusion [2]: 11.2 ± 0.502 kcal/mol
SMILES: O=C(NC[C@H]1CN(c2ccc(N3CCOCC3=O)cc2)C(=O)O1)c1ccc(Cl)s1 [Rivaroxaban]
